Assays:
[1] = orally and intravenously, doses substantially higher than the intended therapeutic dose; cited from earlier work
[2] = Trehalose tolerance test, serum trehalose in trehalase knockout mice; assay type: in vivo; conditions: trehalose IP 1 g/kg, trehalase knockout mice versus control mice
Method: To determine if inhibition of trehalase could enhance the efficacy of trehalose, a trehalase knockout mouse was generated. Control mice and trehalase knockout mice were then administered trehalose IP at 1 g/kg. Of 12 chimeric founders, a trehalose tolerance test was performed on n=3 non-targeted controls and n=5 chimeric mice. […] The serum concentration of trehalose at 30 minutes post-administration was measured.

[3] = cited from earlier work
Mice fed a Western diet [4] = assay: Steatosis / body composition in mice fed a Western diet; assay type: in vivo
Method: Mice were fed a Western diet in combination with saline, sucrose or trehalose. The saline, sucrose or trehalose was administered orally and IP. Oral administration was provided in the cage water supply at 2% w/v in water (w/v=weight/volume). Additionally, 2 grams trehlose/kg mouse weight was injected IP. IP injection was 3 times/week. […] It was then determined if this significant reduction in body mass was due to fat mass or lean mass. […] (FIG. 2B). It was then determined the location of the increase in fat mass via tissue weights. […] Finally, the amount of liver triglycerides was measured in each group.

ApoE deficient mice = assay: Atherosclerotic lesion size in ApoE deficient mice fed a Western diet; assay type: in vivo; conditions: trehalose oral and IP, 2 months post-treatment, relative to vehicle
Method: ApoE deficient mice were fed a Western diet with and without treatment with trehalose. Trehalose was administered oral and IP. At 2 months post-treatment the presence of atherosclerosis was evaluated.

[5] = oral; cited from earlier work
Mice fed a Western diet [6] = assay: Insulin tolerance test; assay type: in vivo; conditions: compared to saline and sucrose, FIG. 3
Method: Additionally, an insulin tolerance test was performed in the presence of saline, sucrose or trehalose.

SMILES: OC[C@H]1O[C@H](O[C@H]2O[C@H](CO)[C@@H](O)[C@H](O)[C@H]2O)[C@H](O)[C@@H](O)[C@@H]1O [trehalose]
- safety and toxicity [1]: found to be safe
- serum concentration of trehalose at 30 minutes post-administration [2]: significantly higher serum levels of trehalose
- oral amount that may cause diarrhea and bloating [3]: 40-50 gram per day
- oral amount that frequently causes diarrhea, bloating and discomfort ([3]; humans): higher than 50 g a day
- lean mass (Mice fed a Western diet [4]; FIG. 2B): not lean mass
- liver triglycerides (Mice fed a Western diet [4]; FIG. 2D): significant reduction in liver triglycerides
- body mass (Mice fed a Western diet [4]; Western diet, oral 2% w/v in water plus 2 g/kg IP 3 times/week, at 13-16 weeks): significantly decreased body mass
- fat mass (Mice fed a Western diet [4]; at 16 weeks, relative to saline or sucrose): significant reduction in fat mass
- subcutaneous (subQ) fat mass (Mice fed a Western diet [4]; tissue weights, FIG. 2C): reduction of fat mass in the subcutaneous (subQ) fat
- tissue mass in the liver (Mice fed a Western diet [4]; tissue weights, FIG. 2C): significant reduction in tissue mass in the liver
- atherosclerotic lesion size (ApoE deficient mice): significantly reduced atherosclerotic lesion size
- ingested trehalose absorbed into the blood stream [5]: Less than 0.5%
- trehalose not absorbed into the blood stream [5]: Over 99.5%
- insulin resistance (insulin tolerance test) (Mice fed a Western diet [6]): less insulin resistance was observed

Source: patent US20190038650A1, “COMPOSITIONS AND METHODS FOR THE TREATMENT OF ATHEROSCLEROSIS AND HEPATOSTEATOSIS AND OTHER DISEASES” (priority 2016, published 2019)
